Assay results taken from PMC6651341, “EDB-FN Targeted Peptide–Drug Conjugates for Use against Prostate Cancer” (International Journal of Molecular Sciences, 2019).
Where a SMILES comes first, the peptide text is derived from it. Bridges are numbered along the chain shown (N, C = ends). [ ]: non-standard residue; d: D form. Ahx = NCCCCCC(=O)O

Assays:
PC3 = test: MTS cell viability assay, PC3; format: cell-based, human; details: 5 µM, after 72 h, MTS, triplicate
Source text: (§1) Human epithelial prostate cell line (RWPE-1, ATCC No. CRL-11610), human prostate cancer cell line (Human prostate carcinoma DU-145, ATCC No. HTB-81), human adenocarcinoma PC3, ATCC No. CRL-1435), androgen-sensitive human prostate adenocarcinoma cells (LNCaP, ATCC No. CRL-1740), and castration-resistant LNCaP-derived C4-2 (ATCC No. CRL-1595) were purchased from American Type Culture Collection (ATCC), Manassas, VA, USA. All the media, serum, and antibiotics were bought from American Type Culture Collection (ATCC) (Manassas, VA, USA) and Sigma life-science (St. Louis, MO, USA). Keratinocytes SFM (1×) with EGF + BPE was bought from Gibco life technologies (Thermo Fisher Scientific), Gaithersburg, MD, USA. CellTiter 96 was bought from Promega, Madison, WI, USA. Dithiothreitol (DTT) was bought from Thermo Fisher scientific, Carlsbad, CA, USA, and TGF-β was bought from Abcam, Boston, MA, USA.
(§2) Cell-proliferation assay using MTS reagent was conducted against five cell lines (RWPE-1, PC3, DU-145, LNCaP, and, C4-2). Cells were seeded into 96-well plates (5 × 10^3 cells for all the cells) and incubated with 100 µL of complete medium (RPMI-1640 for RWPE-1, DU-145, LNCaP, and C4-2; DMEM for PC3) overnight at 37 °C with 5% CO2. Various concentrations (0, 0.06, 0.6, 6, 60, 600 μM) of the peptide solution (20 μL) were added to cells to yield the final concentrations of peptide (0, 0.01, 0.1, 1, 10, 100 μM). The cells were kept in an incubator (37 °C, 5% CO2) for 24, 48, or 72 h accordingly for different treatment time responses. […] The absorbance was obtained at 490 nm using SpectraMax M2 microplate reader to detect the formazan product. […] The percentage of cell viability was calculated by [(OD value of cells treated with the test mixture of compounds) − (OD value of culture medium)] / [(OD value of control cells) − (OD value of culture medium)] × 100%. […] Cell viability was determined by measuring the absorbance at 490 nm using SpectraMax M2 microplate spectrophotometer, as mentioned above.

DU-145 = test: MTS cell viability assay, DU-145; format: cell-based, human; details: 5 µM, after 72 h, triplicate
Source text: as §1, with “Dithiothreitol (DTT) was bought from Thermo Fisher scientific, Carlsbad, CA, USA, and TGF-β was bought from Abcam, Boston, MA, USA.” left out
(§3) Cell-proliferation assay using MTS reagent was conducted against five cell lines (RWPE-1, PC3, DU-145, LNCaP, and, C4-2). […] The absorbance was obtained at 490 nm using SpectraMax M2 microplate reader to detect the formazan product. […] The percentage of cell viability was calculated by [(OD value of cells treated with the test mixture of compounds) − (OD value of culture medium)] / [(OD value of control cells) − (OD value of culture medium)] × 100%. […] Cell viability was determined by measuring the absorbance at 490 nm using SpectraMax M2 microplate spectrophotometer, as mentioned above.

C4-2 = test: MTS cell viability assay, C4-2 without TGF-β; format: cell-based, human; details: 5 µM, after 72 h, triplicate
Source text: as §1, §2

LNCaP = test: MTS cell viability assay, LNCaP; format: cell-based, human; details: 5 µM, after 72 h, triplicate
Source text: as §1, with “Dithiothreitol (DTT) was bought from Thermo Fisher scientific, Carlsbad, CA, USA, and TGF-β was bought from Abcam, Boston, MA, USA.” left out
as §3

[1] = tested on: RWPE-1 normal human prostate epithelial cells; test: MTS cell viability assay, RWPE-1; format: cell-based; details: 5 µM, after 72 h, triplicate
Source text: as §1, with “Dithiothreitol (DTT) was bought from Thermo Fisher scientific, Carlsbad, CA, USA, and TGF-β was bought from Abcam, Boston, MA, USA.” left out
as §3

EDB-FN = test: Confocal microscopy of FAM-tagged peptides, binding to EDB-FN; format: cell-based, human; details: C4-2 cells, 5 μg FAM-peptide, 12 h, confocal 60×
Procedure: Prostate cancer cell line (C4-2) was grown in RPMI medium containing 10% fetal bovine serum and 1% penicillin/streptomycin at the 37 °C in a 5% CO2 incubator. The culture medium was changed every 2–3 days until confluency was reached to 80%. Each cells group was treated with 5 μg of fluorescence-tagged peptides (17 and 18) for 12 h. A set of control groups was also prepared, which was not treated with peptides. Then all cells were fixed with 4% paraformaldehyde for 10 min and washed for 10 min (3 times with PBS). The cells were blocked in 1% FBS/PBS for 10 min and washed for 10 min (3 times with PBS). To target EDB-FN on the cell surface, the cells were incubated with a mouse monoclonal anti-fibronectin antibody (Abcam, Cambridge, MA, USA) (1:1000 dilution using 1% FBS/PBS) overnight at the 4 °C. The cells were washed for 10 min (3 times with PBS), and a Texas red-conjugated anti-mouse secondary antibody was used in 1% FBS/PBS (5:1000 dilution) at the room temperature for 1 h. Then cells were washed for 10 min (3 times with PBS), and at the end, nuclei were stained using DAPI and covered with coverslips. Representative images of cells were captured using a standard confocal microscope (Nikon Eclipse Ti-E, Nikon Instruments Inc., Melville, NY, USA) at 60× magnification, and the images were processed for binary contrast quantification.

Row | Compound | cytotoxicity (PC3) | cytotoxicity (DU-145) | cytotoxicity (C4-2) | cytotoxicity (LNCaP) | cytotoxicity [1] | increase in the peptide-stained area compared to peptide 17 (binary contrast quantification) (EDB-FN) [%]
1 | CC(C)C[C@H](NC(=O)[C@H](Cc1ccccc1)NC(=O)CNC(=O)[C@@H](N)CS)C(=O)NCC(=O)NCCCCCC(=O)N[C@H]1CCCCNC(=O)CC[C@@H](C(N)=O)NC(=O)[C@H](CC(=O)O)NC(=O)[C@H](C)NC(=O)[C@H](CO)NC(=O)[C@H]([C@@H](C)O)NC(=O)[C@H](CCCNC(=N)N)NC(=O)[C@H](C(C)C)NC(=O)[C@H]([C@@H](C)O)NC1=O [compound 9] (H-CGFLG[Ahx]KTVRTSADE-NH2; lactam 7-15) | did not show any significant cytotoxicity | did not show any significant cytotoxicity | did not show any significant cytotoxicity | did not show any significant cytotoxicity | did not show any significant cytotoxicity | 
2 | FAM-GFLG-C6-[KTVRTSADE] (sidechain bridge or staple) [compound 18] |  |  |  |  |  | 48
